# Several values for one entry are separate records, joined by “and”; a condition that tells them apart may be missing. Equal values may be shown once. Inconclusive results and toxic doses are left out.
# Tested on: P388 leukemia ip, CD2F1 mice, survival T/C
# Experiment: NCI In Vivo Anticancer Drug Screen. Data for tumor model P388 Leukemia (intraperitoneal) in CD2F1 (CDF1) mice
# Details: endpoint: median survival time, higher = longer survival
# Summary of the method: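 Mice carrying the transplanted tumor received test compound or vehicle. Survival was recorded in each group, and the value is the treated-group measurement divided by that of the vehicle-treated control group.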
# [1] = dose: 50.0 mg/kg/injection, schedule: Q01DX005 (ip), vehicle: Klucel (hydroxypropylcellulose) (HPC)
# [2] = dose: 100.0 mg/kg/injection, schedule: Q01DX005 (ip), vehicle: Klucel (hydroxypropylcellulose) (HPC)
# [3] = dose: 200.0 mg/kg/injection, schedule: Q01DX005 (ip), vehicle: Klucel (hydroxypropylcellulose) (HPC)
# [4] = dose: 50.0 mg/kg/injection, schedule: Q01DX009 (ip), vehicle: Klucel (hydroxypropylcellulose) (HPC)
# [5] = dose: 100.0 mg/kg/injection, schedule: Q01DX009 (ip), vehicle: Klucel (hydroxypropylcellulose) (HPC)
# [6] = dose: 200.0 mg/kg/injection, schedule: Q01DX009 (ip), vehicle: Klucel (hydroxypropylcellulose) (HPC)
# [7] = dose: 25.0 mg/kg/injection, schedule: Q01DX009 (ip), vehicle: Klucel (hydroxypropylcellulose) (HPC)
# [8] = dose: 60.0 mg/kg/injection, schedule: Q01DX005 (ip), vehicle: saline with Tween-80
# [9] = dose: 120.0 mg/kg/injection, schedule: Q01DX005 (ip), vehicle: saline with Tween-80
# [10] = dose: 12.5 mg/kg/injection, schedule: Q01DX009 (ip), vehicle: saline with Tween-80
smiles,measurement,setting,value
O=C(NO)C1NC1C(=O)NO (stereo not given),T/C,"dose: 25.0 mg/kg/injection, schedule: Q01DX009 (ip), vehicle: water",96 % of control
same,T/C,"dose: 50.0 mg/kg/injection, schedule: Q01DX009 (ip), vehicle: water",109 % of control
same,T/C,"dose: 100.0 mg/kg/injection, schedule: Q01DX001 (ip), vehicle: water",100 % of control
same,T/C,"dose: 100.0 mg/kg/injection, schedule: Q01DX009 (ip), vehicle: water",111 % of control
same,T/C,"dose: 100.0 mg/kg/injection, schedule: Q04DX003 (ip), vehicle: water",115 % of control
same,T/C,"dose: 200.0 mg/kg/injection, schedule: Q01DX001 (ip), vehicle: water",107 % of control
same,T/C,"dose: 200.0 mg/kg/injection, schedule: Q04DX003 (ip), vehicle: water",112 % of control
same,T/C,"dose: 400.0 mg/kg/injection, schedule: Q01DX001 (ip), vehicle: water",100 % of control
same,T/C,"dose: 400.0 mg/kg/injection, schedule: Q04DX003 (ip), vehicle: water",112 % of control
same,T/C,"dose: 600.0 mg/kg/injection, schedule: Q01DX001 (ip), vehicle: water",101 % of control
N#CCCn1ncc(C#N)c1N,T/C,[1],99 % of control
same,T/C,[2],107 % of control
same,T/C,[3],90 % of control
CC(C)SC=O,T/C,[4],100 % of control
same,T/C,[5],107 % of control
same,T/C,[6],106 % of control
COc1cc(C(=O)Nc2cccc(Cl)c2Cl)cc(OC)c1OC,T/C,[1],104 % of control
same,T/C,[2],96 % of control
same,T/C,[3],92 % of control
CNc1nc2c(s1)c1c(O)c3c(O)c(C)c4c(c32)C(=O)C(C)(O/C=C/C(OC)C(C)C(OC(C)=O)C(C)C(O)C(C)C(O)C(C)/C=C/C=C(/C)C(=O)N1)O4 (stereo not given),T/C,[7],98 % of control
same,T/C,[4],100 % of control
same,T/C,[5],106 % of control
same,T/C,[6],100 % of control
NC(CCS(=O)(=O)NCc1ccc(S(=O)(=O)F)cc1)C(=O)O (stereo not given),T/C,"dose: 12.5 mg/kg/injection, schedule: Q01DX009 (ip), vehicle: other",104 % of control
same,T/C,"dose: 25.0 mg/kg/injection, schedule: Q01DX009 (ip), vehicle: other",103 % of control
same,T/C,"dose: 50.0 mg/kg/injection, schedule: Q01DX009 (ip), vehicle: other",100 % of control
same,T/C,"dose: 100.0 mg/kg/injection, schedule: Q01DX009 (ip), vehicle: other",96 % of control
same,T/C,"dose: 200.0 mg/kg/injection, schedule: Q01DX009 (ip), vehicle: other",88 % of control
O=S(=O)(Nc1ccccc1)c1ccc(C2CC3(Cl)C(Cl)=C(Cl)C2(Cl)C3(Cl)Cl)cc1 (stereo not given),T/C,"dose: 100.0 mg/kg/injection, schedule: Q01DX009 (ip), vehicle: saline sonified",90 % of control
same,T/C,"dose: 200.0 mg/kg/injection, schedule: Q01DX009 (ip), vehicle: saline sonified",90 % of control
same,T/C,"dose: 400.0 mg/kg/injection, schedule: Q01DX009 (ip), vehicle: saline sonified",90 % of control
CC/C=C\C/C=C\CC1(O)C=C(Cl)C(=O)C1C(OC(C)=O)C(OC(C)=O)C(CCCC(=O)OC)OC(C)=O (stereo not given),T/C,"dose: 2.25 mg/kg/injection, schedule: Q01DX005 (ip), vehicle: Klucel (hydroxypropylcellulose) (HPC)",103 % of control
same,T/C,"dose: 4.5 mg/kg/injection, schedule: Q01DX005 (ip), vehicle: Klucel (hydroxypropylcellulose) (HPC)",94 % of control
same,T/C,"dose: 9.0 mg/kg/injection, schedule: Q01DX005 (ip), vehicle: Klucel (hydroxypropylcellulose) (HPC)",100 % of control
same,T/C,"dose: 18.0 mg/kg/injection, schedule: Q01DX005 (ip), vehicle: Klucel (hydroxypropylcellulose) (HPC)",95 % of control
same,T/C,"dose: 36.0 mg/kg/injection, schedule: Q01DX005 (ip), vehicle: Klucel (hydroxypropylcellulose) (HPC)",95 % of control
O=c1cnn(C2OC(CO)C(O)C2O)c(=O)[nH]1 (stereo not given),T/C,"dose: 12.5 mg/kg/injection, schedule: Q01DX009 (ip), vehicle: Klucel (hydroxypropylcellulose) (HPC)",118 % of control and 120 % of control
same,T/C,[7],109 % of control and 110 % of control
OCC1OC(n2cnc3c2NC=NC[C@H]3O)C(O)C1O (stereo not given in full),T/C,"dose: 0.1 mg/kg/injection, schedule: Q01DX009 (ip), vehicle: saline",106 % of control
same,T/C,"dose: 0.2 mg/kg/injection, schedule: Q01DX005 (ip), vehicle: saline",104 % of control
same,T/C,"dose: 0.2 mg/kg/injection, schedule: Q01DX009 (ip), vehicle: saline",111 % of control
same,T/C,"dose: 0.4 mg/kg/injection, schedule: Q01DX005 (ip), vehicle: saline",107 % of control
same,T/C,"dose: 0.4 mg/kg/injection, schedule: Q01DX009 (ip), vehicle: saline",103 % of control
same,T/C,"dose: 0.78 mg/kg/injection, schedule: Q01DX005 (ip), vehicle: saline",99 % of control
same,T/C,"dose: 0.8 mg/kg/injection, schedule: Q01DX005 (ip), vehicle: saline",100 % of control
same,T/C,"dose: 1.56 mg/kg/injection, schedule: Q01DX005 (ip), vehicle: saline",97 % of control
COC1OC(CO)C(O)C(NC(=O)N(C)N=O)C1O (stereo not given),T/C,"dose: 100.0 mg/kg/injection, schedule: Q01DX009 (ip), vehicle: saline",169 % of control and 187 % of control
same,T/C,"dose: 200.0 mg/kg/injection, schedule: Q01DX009 (ip), vehicle: saline",218 % of control and 232 % of control
same,T/C,"dose: 400.0 mg/kg/injection, schedule: Q01DX009 (ip), vehicle: saline",105 % of control and 117 % of control
COc1ccc(Cc2n[nH]c(=S)n2-c2cc(C)ccc2C)cc1OC,T/C,[8],102 % of control
same,T/C,[9],91 % of control
same,T/C,"dose: 240.0 mg/kg/injection, schedule: Q01DX005 (ip), vehicle: saline with Tween-80",93 % of control
CC(C)c1cc(C(=O)O)c(O)c(C(C)C)c1.CC(C)c1cc(C(=O)O)c(O)c(C(C)C)c1.[Mn],T/C,"dose: 15.0 mg/kg/injection, schedule: Q01DX005 (ip), vehicle: Klucel (hydroxypropylcellulose) (HPC)",104 % of control and 106 % of control
same,T/C,"dose: 15.0 mg/kg/injection, schedule: Q01DX005 (ip), vehicle: other",101 % of control
same,T/C,"dose: 30.0 mg/kg/injection, schedule: Q01DX005 (ip), vehicle: Klucel (hydroxypropylcellulose) (HPC)",110 % of control and 114 % of control
same,T/C,"dose: 30.0 mg/kg/injection, schedule: Q01DX005 (ip), vehicle: other",105 % of control and 109 % of control
same,T/C,"dose: 60.0 mg/kg/injection, schedule: Q01DX005 (ip), vehicle: Klucel (hydroxypropylcellulose) (HPC)",116 % of control and 117 % of control and 120 % of control
same,T/C,"dose: 60.0 mg/kg/injection, schedule: Q01DX005 (ip), vehicle: other",114 % of control and 95 % of control
same,T/C,"dose: 120.0 mg/kg/injection, schedule: Q01DX005 (ip), vehicle: Klucel (hydroxypropylcellulose) (HPC)",112 % of control and 116 % of control
same,T/C,"dose: 120.0 mg/kg/injection, schedule: Q01DX005 (ip), vehicle: other",114 % of control and 87 % of control
same,T/C,"dose: 240.0 mg/kg/injection, schedule: Q01DX005 (ip), vehicle: other",100 % of control
CC(C)N(C(=O)C1CCN(Cc2c[nH]c3ccccc23)CC1)C(C)C,T/C,[10],108 % of control
same,T/C,"dose: 25.0 mg/kg/injection, schedule: Q01DX009 (ip), vehicle: saline with Tween-80",101 % of control
same,T/C,"dose: 50.0 mg/kg/injection, schedule: Q01DX009 (ip), vehicle: saline with Tween-80",101 % of control
same,T/C,"dose: 100.0 mg/kg/injection, schedule: Q01DX009 (ip), vehicle: saline with Tween-80",115 % of control
CCOC(=O)/C=C(\C)Nc1ccccc1N,T/C,"dose: 100.0 mg/kg/injection, schedule: Q01DX001 (ip), vehicle: saline with Tween-80",97 % of control
same,T/C,"dose: 200.0 mg/kg/injection, schedule: Q01DX001 (ip), vehicle: saline with Tween-80",93 % of control
C/C(N=NC(=S)N1CCCCC1C)=C1\C=CC=CN1O (stereo not given),T/C,"dose: 50.0 mg/kg/injection, schedule: Q01DX005 (ip), vehicle: saline with Tween-80",110 % of control
same,T/C,"dose: 100.0 mg/kg/injection, schedule: Q01DX005 (ip), vehicle: saline with Tween-80",97 % of control
same,T/C,"dose: 200.0 mg/kg/injection, schedule: Q01DX005 (ip), vehicle: saline with Tween-80",104 % of control
COC(=O)C(C)NP(=O)(N1CC1)N1CC1 (stereo not given),T/C,"dose: 1.87 mg/kg/injection, schedule: Q01DX005 (ip), vehicle: saline",119 % of control
same,T/C,"dose: 7.5 mg/kg/injection, schedule: Q01DX005 (ip), vehicle: saline",176 % of control
same,T/C,"dose: 15.0 mg/kg/injection, schedule: Q01DX005 (ip), vehicle: saline with Tween-80",257 % of control
same,T/C,"dose: 15.0 mg/kg/injection, schedule: Q01DX005 (ip), vehicle: saline",226 % of control
Cc1cc(=O)c2c(ccc3c(=O)cc(C)[nH]c32)[nH]1,T/C,"dose: 30.0 mg/kg/injection, schedule: Q01DX005 (ip), vehicle: saline with Tween-80",93 % of control
same,T/C,[8],91 % of control
same,T/C,[9],100 % of control and 91 % of control
CC(C)C[NH-].CC(C)C[NH-].[Cl][Pt+2]([Cl])([Cl])[Cl],T/C,"dose: 5.56 mg/kg/injection, schedule: Q01DX009 (ip), vehicle: saline with Tween-80",169 % of control
same,T/C,"dose: 8.33 mg/kg/injection, schedule: Q01DX009 (ip), vehicle: saline with Tween-80",166 % of control
same,T/C,[10],166 % of control and 181 % of control

# From PubChem BioAssay AID330 (DTP/NCI, 2004)
